Measurements reported in patent US7148253B2, “4-thio coumarins” (priority 2002, dated 2006).
Where “and” joins values, the source holds several entries; their conditions need not be identical. Equal entries are not always repeated.

What was measured:
[1] = test system: HCV RNA in stably HCV RNA-replicating cell line AVA5; experiment: Primary in vitro anti-HCV screen: intracellular HCV RNA levels in AVA5 cells (branched DNA assay); assay type: cell-based, Hepatitis C virus; details: 10 μM, AVA5, duplicate cultures; for HCV % Control: HCV RNA as percentage of untreated cultures; for HCV Copies/ml: once daily for three days
Description: Primary in vitro anti-HCV screen. The antiviral activity of test compounds were assayed in the stably HCV RNA-replicating cell line, AVA5, derived by transfection of the human hepatoblastoma cell line, Huh7 (Blight, et al., 2000, Science 290: 1972). The test compounds were added to dividing cultures once daily for three days. The media was changed with each addition of the compounds. […] Intracellular HCV RNA levels and cytotoxicity are assessed 24 hours after the last dose of compound.
(§1) Assays were conducted using a single dose of test compound. Duplicate cultures for HCV RNA levels (on 48-well plates) and triplicate cultures for cytotoxicity (on 96-well plates) are used.
(§2) Intracellular HCV RNA levels were measured using a commercial assay (Veresant®, Bayer Diagnostics, Inc. Ross, et al. (2002) J. Virol. Meth. 101:159–168, Quantitation of hepatitic C virus RNA by third generation branched DNA-based signal amplification assay). Cytotoxicity was measured using an established neutral red dye uptake assay (Korba, B. E. and J. L. Gerin. 1992. Use of a standardized cell culture assay to determine activities of nucleoside analogs against hepatitis B virus relication. Antivir. Res. 19:55–70). HCV RNA levels in the treated cultures are expressed as a percentage of the mean levels of RNA detected in untreated cultures. A level of 30% or less, HCV RNA relative to control cultures may be considered to be a positive antiviral effect. A level of 50% or less, neutral red dye uptake relative to control cultures may be considered to be a cytotoxic effect.

[2] = test system: HCV RNA-replicating cell line AVA5; experiment: Normalized Viral Assay; assay type: cell-based, Hepatitis C virus
Description: (§3) Primary in vitro anti-HCV screen. The antiviral activity of test compounds were assayed in the stably HCV RNA-replicating cell line, AVA5, derived by transfection of the human hepatoblastoma cell line, Huh7 (Blight, et al., 2000, Science 290: 1972). The test compounds were added to dividing cultures once daily for three days. The media was changed with each addition of the compounds. Cultures generally start the assay at 30–50% confluence and reach confluence during the last day of treatment.

[3] = test system: AVA5 cell line (derived from human hepatoblastoma cell line Huh7); experiment: Primary screen cytotoxicity: neutral red dye uptake; assay type: cell-based; details: 10 μM, AVA5; for Neutral Red % Control: dye uptake relative to untreated cultures
Description: as §3, §1, §2

AVA5 cell line [4] = experiment: ATP Cell Viability
AVA5 cell line [5] = experiment: MTS Cell Viability

Row | Compound | HCV % Control [1] | HCV Copies/ml [1] | Normalized Viral Assay ([2]; 1 μM) | Normalized Viral Assay ([2]; 5 μM) | Normalized Viral Assay ([2]; 10 μM) | ATP Cell Viability (AVA5 cell line [4]; 5 μM) | ATP Cell Viability (AVA5 cell line [4]; 10 μM) | MTS Cell Viability (AVA5 cell line [5]; 5 μM) | MTS Cell Viability (AVA5 cell line [5]; 10 μM) | ATP Cell Viability (AVA5 cell line [4]; 1 μM) | MTS Cell Viability (AVA5 cell line [5]; 1 μM) | other results
1 | O=c1oc2ccccc2c(Sc2ccc(Br)cc2)c1Sc1ccc(F)cc1 [VQ_412] | 54 % Control and 49 % Control | 726473 Copies/ml and 656755 Copies/ml |  |  |  |  |  |  |  |  |  | 
2 | Cc1ccc(Sc2c(Sc3ccc(F)cc3Cl)c3ccccc3oc2=O)cc1C [VQ_437] | 41 % Control and 38 % Control | 556515 Copies/ml and 507191 Copies/ml |  |  |  |  |  |  |  |  |  | 
3 | Cc1cc(C)cc(Sc2c(Sc3cccc(Cl)c3)c3ccccc3oc2=O)c1 [VQ_468] | 23 % Control and 24 % Control | 306102 Copies/ml and 318777 Copies/ml |  |  |  |  |  |  |  |  |  | 
4 | Cc1cc(C)cc(Sc2c(Sc3ccc(F)cc3Cl)c3ccccc3oc2=O)c1 [VQ_473] | 39 % Control | 529743 Copies/ml and 523506 Copies/ml |  |  |  |  |  |  |  |  |  | 
5 | O=c1oc2ccccc2c(Sc2ccc(Br)cc2)c1Sc1ccc(F)cc1 [compound 412] |  |  | 55.65 | 28.13 | 16.13 |  |  |  |  |  |  | 
6 | Cc1ccc(Sc2c(Sc3ccc(F)cc3Cl)c3ccccc3oc2=O)cc1C [compound 437] |  |  | 59.33 | 34.83 | 20.41 |  |  |  |  |  |  | 
7 | Cc1cc(C)cc(Sc2c(Sc3ccc(F)cc3Cl)c3ccccc3oc2=O)c1 [compound 473] |  |  | 68.16 | 40.79 | 12.45 |  |  |  |  |  |  | 
8 | COc1ccc2oc(=O)cc(Sc3ccccc3F)c2c1 [compound 824] |  |  |  | 52.29 | 17.28 | 91.28 | 75.61 | 94.56 | 84.15 |  |  | Neutral Red % Control ([3]; listed as VQ_824): 99 % Control and 102 % Control; Neutral Red O.D. ([3]; listed as VQ_824): 2.214 O.D. and 2.274 O.D.; HCV % Control ([1]; listed as VQ_824): 101 % Control and 90 % Control; HCV Copies/ml ([1]; listed as VQ_824): 1357786 Copies/ml and 1211659 Copies/ml
9 | COc1ccc2oc(=O)cc(Sc3ccc(F)cc3F)c2c1 [compound 830] |  |  | 87.63 | 46.87 | 40.35 | 97.11 | 104.41 | 101.06 | 98.85 | 106.44 | 112.38 | 
10 | O=c1cc(Sc2ccccc2Cl)c2cc(F)ccc2o1 [compound 894] |  |  | 35.65 | 9.04 | 6.84 | 109.42 | 58.26 | 83.91 | 81.24 | 113.25 | 104.53 | Neutral Red % Control ([3]; listed as VQ_894): 100 % Control and 101 % Control; Neutral Red O.D. ([3]; listed as VQ_894): 2.234 O.D. and 2.257 O.D.; HCV % Control ([1]; listed as VQ_894): 95 % Control and 84 % Control; HCV Copies/ml ([1]; listed as VQ_894): 1277826 Copies/ml and 1128325 Copies/ml
11 | O=c1cc(Sc2ccc(F)cc2Cl)c2cc(F)ccc2o1 [compound 899] |  |  | 40.10 | 10.66 | 10.32 | 112.43 | 105.60 | 90.22 | 85.37 | 102.77 | 106.10 | Neutral Red % Control ([3]; listed as VQ_899): 100 % Control and 102 % Control; Neutral Red O.D. ([3]; listed as VQ_899): 2.237 O.D. and 2.286 O.D.; HCV % Control ([1]; listed as VQ_899): 66 % Control and 65 % Control; HCV Copies/ml ([1]; listed as VQ_899): 886875 Copies/ml and 873484 Copies/ml
12 | O=c1cc(Sc2cc(Cl)ccc2Cl)c2cc(F)ccc2o1 [compound 901] | 63 % Control |  | 24.87 | 12.80 | 8.34 | 106.63 | 79.01 | 97.37 | 86.10 | 105.62 | 107.32 | Neutral Red % Control ([3]; listed as VQ_901): 102 % Control and 100 % Control; Neutral Red O.D. ([3]; listed as VQ_901): 2.287 O.D. and 2.241 O.D.; HCV Copies/ml ([1]; listed as VQ_901): 851852 Copies/ml and 846803 Copies/ml
13 | O=c1cc(Sc2ccccc2F)c2cc(F)ccc2o1 [compound 904] |  |  | 50.52 | 37.87 | 9.27 | 100.32 | 74.11 | 108.04 | 86.22 | 107.54 | 116.41 | Neutral Red % Control ([3]; listed as VQ_904): 100 % Control and 101 % Control; Neutral Red O.D. ([3]; listed as VQ_904): 2.237 O.D. and 2.255 O.D.; HCV % Control ([1]; listed as VQ_904): 79 % Control and 75 % Control; HCV Copies/ml ([1]; listed as VQ_904): 1072174 Copies/ml and 1013181 Copies/ml
